From patent US8802700B2 (Vertex Pharmaceuticals Incorporated, priority 2010, dated 2014)

The compounds below were run against T1, ΔF508-CFTR (Homo sapiens, UniProt P13569, DEL508-508) (assay: Membrane potential optical assay (FRET voltage-sensor dyes, VIPR), identification of potentiator compounds). Settings: Table 3; assay not given.
T1 construct: expressed in transfected cells
T1 sequence (P13569 with tags, fused parts or gaps DEL508-508): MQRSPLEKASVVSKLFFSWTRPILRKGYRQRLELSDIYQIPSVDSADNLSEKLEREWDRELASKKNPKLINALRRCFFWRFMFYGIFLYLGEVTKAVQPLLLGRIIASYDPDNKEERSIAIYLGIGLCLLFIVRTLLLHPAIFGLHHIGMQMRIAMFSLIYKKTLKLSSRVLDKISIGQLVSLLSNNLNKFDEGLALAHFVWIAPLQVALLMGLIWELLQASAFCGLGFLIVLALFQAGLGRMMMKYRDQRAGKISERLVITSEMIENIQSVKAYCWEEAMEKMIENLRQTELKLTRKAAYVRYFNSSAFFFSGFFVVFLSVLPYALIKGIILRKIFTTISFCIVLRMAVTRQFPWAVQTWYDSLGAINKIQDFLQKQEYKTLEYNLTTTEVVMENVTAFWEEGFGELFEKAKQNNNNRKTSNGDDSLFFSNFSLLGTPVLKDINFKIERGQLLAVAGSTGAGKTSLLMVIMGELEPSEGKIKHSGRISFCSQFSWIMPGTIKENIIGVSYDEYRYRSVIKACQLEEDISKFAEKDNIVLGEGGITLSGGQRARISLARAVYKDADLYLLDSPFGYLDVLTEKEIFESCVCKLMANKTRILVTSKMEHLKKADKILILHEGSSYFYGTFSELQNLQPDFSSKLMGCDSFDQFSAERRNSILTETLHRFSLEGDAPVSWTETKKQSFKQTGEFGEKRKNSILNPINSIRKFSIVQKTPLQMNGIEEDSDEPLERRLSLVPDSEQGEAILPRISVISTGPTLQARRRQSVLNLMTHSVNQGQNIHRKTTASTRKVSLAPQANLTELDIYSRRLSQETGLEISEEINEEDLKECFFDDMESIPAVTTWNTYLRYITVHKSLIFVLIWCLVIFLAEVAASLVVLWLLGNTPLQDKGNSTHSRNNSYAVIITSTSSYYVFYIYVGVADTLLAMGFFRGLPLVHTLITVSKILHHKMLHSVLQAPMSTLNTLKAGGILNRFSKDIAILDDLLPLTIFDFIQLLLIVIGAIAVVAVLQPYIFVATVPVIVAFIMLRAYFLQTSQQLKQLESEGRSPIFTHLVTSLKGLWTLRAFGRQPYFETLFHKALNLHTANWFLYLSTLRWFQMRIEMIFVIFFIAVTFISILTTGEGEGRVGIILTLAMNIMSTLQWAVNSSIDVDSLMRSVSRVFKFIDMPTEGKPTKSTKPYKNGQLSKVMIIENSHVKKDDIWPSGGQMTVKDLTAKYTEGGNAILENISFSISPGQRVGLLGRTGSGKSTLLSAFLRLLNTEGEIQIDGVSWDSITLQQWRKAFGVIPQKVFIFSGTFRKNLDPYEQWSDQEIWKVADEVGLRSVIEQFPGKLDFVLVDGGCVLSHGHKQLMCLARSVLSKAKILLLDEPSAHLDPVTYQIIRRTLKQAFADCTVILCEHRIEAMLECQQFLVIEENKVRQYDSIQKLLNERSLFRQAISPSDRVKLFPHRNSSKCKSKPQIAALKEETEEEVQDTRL
Type: cell-based
Outline: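 NIH3T3 mouse fibroblasts stably expressing ΔF508-CFTR, cultured 24 h at 27 °C, were loaded with FRET voltage dyes CC2-DMPE and DiSBAC2(3). Double-addition format: first addition of Cl⁻-free (gluconate) medium with or without compound; membrane-potential change read as fluorescence on VIPR II.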
Work on `CC(=O)Nc1ccc(C(C)C)c(NC(=O)c2c[nH]c3ccccc3c2=O)c1` [Compound 243, N-(5-acetylamino-2-isopropyl-phenyl)-4-oxo-1H-quinoline-3-carboxamide] yielded an EC50 of 10 to 25 µM. For `O=C(Nc1cccnc1Oc1ccc(F)cc1F)c1c[nH]c2ccccc2c1=O` [Compound 385, N-[2-(2,4-difluorophenoxy)-3-pyridyl]-4-oxo-1H-quinoline-3-carboxamide], the EC50 was < 10 µM. `CS(=O)(=O)Nc1cccc(NC(=O)c2c[nH]c3ccccc3c2=O)c1` [Compound 214, N-(3-methylsulfonylaminophenyl)-4-oxo-1H-quinoline-3-carboxamide] was tested, and the EC50 was 10 to 25 µM. In the case of `CC(C)(C)c1c[nH]c2cc(NC(=O)c3c[nH]c4ccccc4c3=O)c(C(F)(F)F)cc12` [Compound 508, 4-oxo-N-[3-tert-butyl-5-(trifluoromethyl)-1H-indol-6-yl]-1H-quinoline-3-carboxamide], the EC50 is reported as < 10 µM. With `CS(=O)(=O)Nc1cc(NC(=O)c2c[nH]c3ccccc3c2=O)cc(C(F)(F)F)c1` [Compound 441, N-[3-methylsulfonylamino-5-(trifluoromethyl)phenyl]-4-oxo-1H-quinoline-3-carboxamide] the EC50 was < 10 µM. With `CN(C)c1cc(NC(=O)c2c[nH]c3ccccc3c2=O)ccc1C(C)(C)C` [Compound 485, N-(3-Dimethylamino-4-tert-butyl-phenyl)-4-oxo-1H-quinoline-3-carboxamide] the EC50 was < 10 µM.

Same assay, conditions: Table 3; assay not given; read-out: % Activity (% Efficacy, relative efficacy)
In the case of `CC(=O)Nc1ccc(C(C)C)c(NC(=O)c2c[nH]c3ccccc3c2=O)c1` [Compound 243, N-(5-acetylamino-2-isopropyl-phenyl)-4-oxo-1H-quinoline-3-carboxamide], the Emax is reported as 25 to 100%. In the case of `O=C(Nc1cccnc1Oc1ccc(F)cc1F)c1c[nH]c2ccccc2c1=O` [Compound 385, N-[2-(2,4-difluorophenoxy)-3-pyridyl]-4-oxo-1H-quinoline-3-carboxamide], the Emax is reported as 25 to 100%. `O=C(Nc1ccccc1-c1ccccc1C(F)(F)F)c1c[nH]c2ccccc2c1=O` [Compound 11, 4-oxo-N-[2-[2-(trifluoromethyl)phenyl]phenyl]-1H-quinoline-3-carboxamide] showed an Emax of 25 to 100%. With `CCOC(=O)C(C)(C)c1ccc(NC(=O)c2c[nH]c3ccccc3c2=O)cc1` [Compound 420, 2-methyl-2-[4-[(4-oxo-1H-quinolin-3-yl)carbonylamino]phenyl]-propanoic acid ethyl ester] the Emax was 25 to 100%. Compound `CCOC(=O)NC1CCCc2ccc(NC(=O)c3c[nH]c4ccccc4c3=O)cc21` (centres unmarked) [Compound 482, [7-[(4-Oxo-1H-quinolin-3-yl)carbonylamino]tetralin-1-yl]aminoformic acid ethyl ester] has an Emax of 25 to 100%. `O=C(Nc1ccccc1OCc1ccccc1)c1c[nH]c2ccccc2c1=O` [Compound 240, N-(2-benzyloxyphenyl)-4-oxo-1H-quinoline-3-carboxamide] showed an Emax of 25 to 100%. `CN1CCC(C)(C)c2ccc(NC(=O)c3c[nH]c4ccccc4c3=O)cc21` [Compound 710, 4-oxo-N-(1,4,4-trimethyl-2,3-dihydroquinolin-7-yl)-1H-quinoline-3-carboxamide] was tested, and the Emax was 25 to 100%. `CC(C)c1ccc(NC(=O)c2c[nH]c3ccccc3c2=O)c(C(F)(F)F)c1` [Compound 47, N-[4-isopropyl-2-(trifluoromethyl)phenyl]-4-oxo-1H-quinoline-3-carboxamide] showed an Emax of 25 to 100%. Compound `O=C(Nc1ccc2cc[nH]c2c1)c1cnc2ccc(F)cc2c1O` [Compound 345, 6-fluoro-4-hydroxy-N-(1H-indol-6-yl)quinoline-3-carboxamide] has an Emax of 25 to 100%. Compound `CC(=O)c1ccc(-c2ccccc2NC(=O)c2c[nH]c3ccccc3c2=O)s1` [Compound 174, N-[2-(5-acetyl-2-thienyl)phenyl]-4-oxo-1H-quinoline-3-carboxamide] has an Emax of 25 to 100%. `CS(=O)(=O)Nc1cccc(NC(=O)c2c[nH]c3ccccc3c2=O)c1` [Compound 214, N-(3-methylsulfonylaminophenyl)-4-oxo-1H-quinoline-3-carboxamide] gave an Emax of 25 to 100%. `CC(C)(C)c1c[nH]c2cc(NC(=O)c3c[nH]c4ccccc4c3=O)c(C(F)(F)F)cc12` [Compound 508, 4-oxo-N-[3-tert-butyl-5-(trifluoromethyl)-1H-indol-6-yl]-1H-quinoline-3-carboxamide] showed an Emax of 25 to 100%. Work on `O=C1CSc2ccc(NC(=O)c3c[nH]c4ccccc4c3=O)cc2N1` [Compound 262, 1,4-dihydro-N-(3,4-dihydro-3-oxo-2H-benzo[b][1,4]thiazin-6-yl)-4-oxoquinoline-3-carboxamide] yielded an Emax of 25 to 100%. `CCc1c[nH]c2cc(NC(=O)c3c[nH]c4ccccc4c3=O)ccc12` [Compound 383, N-(3-ethyl-1H-indol-6-yl)-4-oxo-1H-quinoline-3-carboxamide] gave an Emax of 25 to 100%. For `CC(C)(C)c1cc(F)c(NC(=O)c2c[nH]c3cccc(O)c3c2=O)cc1O` [Compound 407, N-(2-fluoro-5-hydroxy-4-tert-butyl-phenyl)-5-hydroxy-4-oxo-1H-quinoline-3-carboxamide], the Emax was 25 to 100%. Work on `O=C(Nc1ccccc1-c1csc2ccccc12)c1c[nH]c2ccccc2c1=O` [Compound 417, N-(2-(benzo[b]thiophen-3-yl)phenyl)-1,4-dihydro-4-oxoquinoline-3-carboxamide] yielded an Emax of 25 to 100%. `O=C(Nc1ccc2c(c1)S(=O)(=O)C=C2)c1c[nH]c2ccccc2c1=O` [Compound 446, N-(1,1-dioxobenzothiophen-6-yl)-4-oxo-1H-quinoline-3-carboxamide] was tested, and the Emax was < 25%. For `COC(=O)[C@@H]1CCCCN1c1ccc(NC(=O)c2c[nH]c3ccccc3c2=O)c(C(F)(F)F)c1` [Compound 715, (S)-methyl 1-(4-(4-oxo-1,4-dihydroquinoline-3-carboxamido)-3-(trifluoromethyl)phenyl)piperidine-2-carboxylate], the Emax was 25 to 100%. For `CSc1nc2ccccc2c(O)c1C(=O)Nc1ccc2cc[nH]c2c1` [Compound 374, 4-hydroxy-N-(1H-indol-6-yl)-2-methylsulfanyl-quinoline-3-carboxamide], the Emax was < 25%. With `O=C(Nc1ccccc1)c1c[nH]c2cc(Cl)ccc2c1=O` [Compound 411, 7-chloro-4-oxo-N-phenyl-1H-quinoline-3-carboxamide] the Emax was 25 to 100%. Compound `CC(C)(C)c1ccc(N)cc1NC(=O)c1c[nH]c2ccccc2c1=O` [Compound 260, N-(5-Amino-2-tert-butyl-phenyl)-4-oxo-1H-quinoline-3-carboxamide] has an Emax of 25 to 100%. In the case of `NS(=O)(=O)c1ccccc1NC(=O)c1c[nH]c2ccccc2c1=O` [Compound 78, 4-oxo-N-(2-sulfamoylphenyl)-1H-quinoline-3-carboxamide], the Emax is reported as < 25%. `O=C(Nc1cc2[nH]ccc2cc1-c1cccnc1)c1c[nH]c2ccccc2c1=O` [Compound 65, 4-oxo-N-[5-(3-pyridyl)-1H-indol-6-yl]-1H-quinoline-3-carboxamide] was tested, and the Emax was 25 to 100%. In the case of `CS(=O)(=O)Nc1cc(NC(=O)c2c[nH]c3ccccc3c2=O)cc(C(F)(F)F)c1` [Compound 441, N-[3-methylsulfonylamino-5-(trifluoromethyl)phenyl]-4-oxo-1H-quinoline-3-carboxamide], the Emax is reported as 25 to 100%. For `CC(C)(C)c1cc(C(C)(C)C)c(NC(=O)c2c[nH]c3cccc(O)c3c2=O)cc1O` [Compound 464, 5-hydroxy-N-(5-hydroxy-2,4-ditert-butyl-phenyl)-4-oxo-1H-quinoline-3-carboxamide], the Emax was 25 to 100%. With `Cc1cccc2[nH]cc(C(=O)Nc3ccc(N4CCC(C)(C)C4)cc3C(F)(F)F)c(=O)c12` [Compound 578, N-[4-(3,3-dimethylpyrrolidin-1-yl)-2-(trifluoromethyl)phenyl]-5-methyl-4-oxo-1H-quinoline-3-carboxamide] the Emax was 25 to 100%. Compound `CC(C)(C)c1ccc(NC(=O)c2c[nH]c3ccccc3c2=O)cc1F` [Compound 645, N-(3-fluoro-4-tert-butyl-phenyl)-4-oxo-1H-quinoline-3-carboxamide] has an Emax of 25 to 100%. In the case of `COCCn1ccc2cc(C(F)(F)F)c(NC(=O)c3c[nH]c4ccc(F)cc4c3=O)cc21` [Compound 566, 6-fluoro-N-[1-(2-methoxyethyl)-5-(trifluoromethyl)indol-6-yl]-4-oxo-1H-quinoline-3-carboxamide], the Emax is reported as 25 to 100%. In the case of `Cc1cc(C2C3CC4CC(C3)CC2C4)c(O)cc1NC(=O)c1c[nH]c2ccccc2c1=O` (centres unmarked) [Compound 208, N-[4-(2-adamantyl)-5-hydroxy-2-methyl-phenyl]-4-oxo-1H-quinoline-3-carboxamide], the Emax is reported as 25 to 100%. `O=C(Nc1cc(O)c(C(F)(F)F)cc1F)c1c[nH]c2ccccc2c1=O` [Compound 501, N-[2-fluoro-5-hydroxy-4-(trifluoromethyl)phenyl]-4-oxo-1H-quinoline-3-carboxamide] showed an Emax of 25 to 100%. `COc1c(N)cc(C(C)(C)C)cc1NC(=O)c1c[nH]c2ccccc2c1=O` [Compound 55, N-(3-amino-2-methoxy-5-tert-butyl-phenyl)-4-oxo-1H-quinoline-3-carboxamide] was tested, and the Emax was < 25%. Compound `COc1ccc(Cl)cc1-c1ccccc1NC(=O)c1c[nH]c2ccccc2c1=O` [Compound 202, N-[2-(5-chloro-2-methoxy-phenyl)phenyl]-4-oxo-1H-quinoline-3-carboxamide] has an Emax of 25 to 100%. For `Cc1ccc2c(=O)c(C(=O)Nc3cc(O)c(C(C)(C)C)cc3C(C)(C)C)c[nH]c2c1` [Compound 640, N-(5-hydroxy-2,4-ditert-butyl-phenyl)-7-methyl-4-oxo-1H-quinoline-3-carboxamide], the Emax was > 100%. `CN(C)c1cc(NC(=O)c2c[nH]c3ccccc3c2=O)ccc1C(C)(C)C` [Compound 485, N-(3-Dimethylamino-4-tert-butyl-phenyl)-4-oxo-1H-quinoline-3-carboxamide] gave an Emax of 25 to 100%. `Cc1ccc(NC(=O)c2c[nH]c3ccccc3c2=O)cc1C` [Compound 246, N-(3,4-dimethylphenyl)-4-oxo-1H-quinoline-3-carboxamide] was tested, and the Emax was 25 to 100%. Compound `CC(C)(C)CC(=O)Nc1ccc(C(C)(C)C)c(NC(=O)c2c[nH]c3ccccc3c2=O)c1` [Compound 196, N-[5-(3,3-dimethylbutanoylamino)-2-tert-butyl-phenyl]-4-oxo-1H-quinoline-3-carboxamide] has an Emax of 25 to 100%. `CC1(C)CCCNc2cc(NC(=O)c3c[nH]c4ccccc4c3=O)ccc21` [Compound 35, 1,4-dihydro-N-(2,3,4,5-tetrahydro-5,5-dimethyl-1H-benzo[b]azepin-8-yl)-4-oxoquinoline-3-carboxamide] showed an Emax of 25 to 100%. `CCCCOc1ccccc1NC(=O)c1c[nH]c2ccccc2c1=O` [Compound 177, N-(2-butoxyphenyl)-4-oxo-1H-quinoline-3-carboxamide] was tested, and the Emax was > 100%. `COC(=O)NCC(C)(C)c1ccc(NC(=O)c2c[nH]c3ccccc3c2=O)cc1` [Compound 323, [2-Methyl-2-[4-[(4-oxo-1H-quinolin-3-yl)carbonylamino]phenyl]-propyl]aminoformic acid methyl ester] showed an Emax of 25 to 100%. With `COc1cc2c(=O)c(C(=O)Nc3cc(O)c(C(C)(C)C)cc3C(C)(C)C)c[nH]c2cc1F` [Compound 709, 7-fluoro-N-(5-hydroxy-2,4-ditert-butyl-phenyl)-6-methoxy-4-oxo-1H-quinoline-3-carboxamide] the Emax was > 100%. `COc1cc(NC(=O)c2c[nH]c3ccc(F)cc3c2=O)cc(C(F)(F)F)c1` [Compound 666, 6-fluoro-N-[3-methoxy-5-(trifluoromethyl)phenyl]-4-oxo-1H-quinoline-3-carboxamide] was tested, and the Emax was 25 to 100%.
